From the NIST ThermoML archive (doi:10.1021/je030102f)

Assay: xn = mol fraction of the nth substance listed
Conditions: 101.33 kPa, Liquid, vibrating tube

CC(C)=O [acetone] + O
mass density [kg/m3]
Conditions | x1 = 0.0988 | x1 = 0.2193 | x1 = 0.2973 | x1 = 0.3998 | x1 = 0.4986 | x1 = 0.5903 | x1 = 0.6984 | x1 = 0.7934 | x1 = 0.8916 | x1 = 1
283.15 K | 966.507 | 932.823 | 913.382 | 889.08 | 868.988 | 853.092 | 836.647 | 824.028 | 812.997 | 801.669
288.15 K | 963.567 | 928.61 | 908.777 | 884.145 | 863.861 | 847.829 | 831.252 | 818.534 | 807.424 | 796.037
293.14 K | – | 924.322 | 904.105 | 879.148 | – | – | – | – | – | –
293.15 K | 960.497 | – | – | – | 858.674 | 842.508 | 825.797 | 812.982 | 801.797 | 790.355
298.14 K | 957.313 | 919.968 | 899.375 | 874.098 | – | 837.135 | 820.292 | 807.383 | 796.13 | –
298.15 K | – | – | – | – | 853.436 | – | – | – | – | 784.638
303.14 K | – | 915.544 | 894.587 | 868.996 | 848.142 | 831.707 | 814.735 | 801.735 | 790.413 | 778.876
303.15 K | 954.01 | – | – | – | – | – | – | – | – | –
308.14 K | – | – | – | – | – | 826.22 | – | – | – | –
308.15 K | 950.61 | 911.052 | 889.735 | 863.836 | 842.791 | – | 809.12 | 796.028 | 784.645 | 773.065
313.14 K | 947.117 | 906.488 | 884.822 | 858.617 | – | 820.677 | 803.446 | 790.262 | 778.818 | 767.205
313.15 K | – | – | – | – | 837.381 | – | – | – | – | –
318.14 K | – | 901.855 | 879.849 | 853.341 | 831.924 | – | – | 784.437 | 772.936 | 761.288
318.15 K | 943.497 | – | – | – | – | 815.068 | 797.707 | – | – | –
323.14 K | – | – | 874.812 | 848.021 | 826.399 | – | 791.9 | 778.546 | 766.99 | 755.314
323.15 K | 939.767 | 897.151 | – | – | – | 809.395 | – | – | – | –
